{"source": "patent US20030181659A1", "about": "“Thrombopoietin receptor modulating peptide” (priority 2000, published 2003)", "key": {"carboplatin treated mice [1]": {"test_system": "carboplatin treated mice", "format": "in vivo", "details": "for effects on other blood components: mouse, in vivo", "description": "The model used for the in vivo experiments was reported previously (Akahori et al. (1996) Stem Cells 14:678-689, Akahori et al. (1996) Br. J. Haematol. 94:722-728, Shibuya et al. (1998) Blood 91:37-45, Andrews et al. (1996) Stem Cells 14:661-677). Improvements and modifications that were introduced are indicated below.\nEach test group (PBS, TPO, or TPO-Rp) was given as a single daily dose administered by intraperitoneal injection. Daily doses were begun on day 0 and continued throughout the duration of the experimental period (day 10). Two i.p. injections of carboplatin 90 mg/kg each (PBS for group 11) were given on days 0 and 4.\n(§1) Blood collections were taken on days −0 (basal), 8, 11, 14, and 18. Blood was obtained by sampling from the tail of mice (8 week old male C57BL/6Y mice), followed by cauterisation. A volume of 80 μl of blood from each mouse was collected into a heparinized blood collection tube. The 80 μl of blood was then mixed with 160 μl of saline containing sufficient EDTA (0.225%) to provide for anticoagulation.\n[…] Carboplatin is used to induce thrombocytopenia. In order to work with a model that is as similar as possible to clinical situations, a previously reported carboplatin model (Akahori et al. (1996) Stem Cells 14:678-689, Akahori et al. (1996) Br. J. Haematol. 94:722-728, Shibuya et al. (1998) Blood 91:37-45, Andrews et al. (1996) Stem Cells 14:661-677) has been carefully studied and modified accordingly. Additionally, a method for animal bleeds has been carefully studied, in order to work with animals that show the highest response to a given drug and which are at the same time under a minimum of stress (see Methods above). Thus, the dose of carboplatin has been increased to 180 mg/kg and was given by two intraperitoneal (i.p) injections on day 0 (half-dose) and day 4 (second half-dose). Carboplatin induced severe thrombocytopenia on day eight."}, "carboplatin treated mice [2]": {"test_system": "carboplatin treated mice", "experiment": "Carboplatin (200 mg/kg) induced thrombocytopenia in mice", "format": "in vivo", "details": "for platelet number: carboplatin 200 mg/kg", "method": "Each test group was given a single daily dose administered by intraperitoneal injection. Daily doses were begun on day 0 and continued throughout the duration of the experimental period (day 13). Minimal doses were given on indicated days: 0 and 4; 0, 4 and 8; 0, 4, 8 and 12; days 8 through 14. Two i.p. injections of carboplatin 100 mg/kg were given on days 0 and 4.\nas §1, with “days 0” for “days −0”, “11, 14” for “11, 14,”, “18. Blodd” for “18. Blood”, “the tails” for “the tail”, “male C57BL/6J mice)” for “male C57BL/6Y mice),”\nThe dose of carboplatin has been increased to 200 mg/kg and was given as a cumulative dose by two intraperitoneal (i.p.) injections on day 0 (half-dose) and day 4 (second half-dose). Carboplatin induced severe thrombocytopenia on day eleven."}, "TPO-R [3]": {"molecular_target": "T1, TPO-R (Homo sapiens, UniProt P40238)", "T1 construct": "endogenous in cells; host or cells: TF-1 cells", "T1 sequence (P40238 26-635)": "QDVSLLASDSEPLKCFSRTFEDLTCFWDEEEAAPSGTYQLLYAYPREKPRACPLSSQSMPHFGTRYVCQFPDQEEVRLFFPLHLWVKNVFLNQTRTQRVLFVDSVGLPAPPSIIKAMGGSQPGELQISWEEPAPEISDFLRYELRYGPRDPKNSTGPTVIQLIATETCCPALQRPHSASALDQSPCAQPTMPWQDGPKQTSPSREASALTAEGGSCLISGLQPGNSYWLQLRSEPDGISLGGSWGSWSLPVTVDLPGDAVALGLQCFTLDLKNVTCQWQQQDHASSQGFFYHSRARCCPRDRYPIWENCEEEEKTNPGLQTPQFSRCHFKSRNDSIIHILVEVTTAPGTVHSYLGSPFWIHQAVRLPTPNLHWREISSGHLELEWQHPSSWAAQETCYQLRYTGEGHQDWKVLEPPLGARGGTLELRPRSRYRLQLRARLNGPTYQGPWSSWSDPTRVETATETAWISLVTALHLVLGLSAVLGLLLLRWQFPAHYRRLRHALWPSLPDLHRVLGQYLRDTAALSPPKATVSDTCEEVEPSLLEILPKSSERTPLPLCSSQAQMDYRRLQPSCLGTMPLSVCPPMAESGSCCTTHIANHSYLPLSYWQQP", "experiment": "In vitro signalling assay, dose response (STAT5 phosphorylation)", "format": "cell-based", "details": "dose response 0.3 nM to 30 μM", "method": "(§2) Treatment of the cells: TF-1 cells were grown to an approximate density of 1×10^6 cells in RPMI 1640 media with 1× Penicillin/Streptomycin, 2 mM glutamin, 10% fetal bovine serum (Hyclone) and 1 ng/ml GM-CSF, centrifuged down and resuspended in media with 3% serum and no GM-CSF. The cells were starved for 14-18 hours at 37° C. (5% CO2), spun down and resuspended at a density of 1×10^6 cells/ml in a medium without serum and GM-CSF. 2 ml of cell suspension was treated with the oligopeptide or TPO (as indicated per experiment) at 37° C. for 30 min. (5% CO2). 10 ml of ice-cold cell wash buffer was added per Falcon tube and centrifuged down quickly at 4° C. and 3000 rpm,. The medium was carefully aspirated and the wash repeated twice with PBS.\nThe following steps were performed on ice. The medium was aspirated and 0.6 ml of 2× lysis buffer per tube was added. This was pipetted up and down and transferred to Eppendorf tubes, placed on ice for circa 30 min., and centrifuged at 14,000×g for 10 min. The supernatant (lysate) was used in immunoprecipitations.\nImmunoprecipitations: 20-40 μL of GammaBind G Sepharose slurry was used per immunoprecipitation. The protein G beads were washed several times with 0.5× lysis buffer in Eppendorf tubes and 1-4 μg of PY-99 antibody (Santa Cruz-Biotechnology) was added per immunoprecipitation. The tubes were incubated with end-over-end rotation for 2 h at room temperature. The lysate was added and the tubes further incubated with end-over-end rotation overnight at 4° C. The beads were washed 3 times with 1× lysis buffer and once with 0.5 M Tris pH 6.5. 50 μl of SDS-sample buffer was added and the samples were boiled for 3 min prior to being applied to the gels.\nWestern blot analysis: about 10 μl/sample was run on a 8% Polyacrylamide mini gel, transferred to PVDF membrane (Millipore), blocked for 1 h in blocking buffer and incubated with αSTAT5 antibody (Santa Cruz-Biotechnology) overnight at 4° C. in an 1:1000 dilution. The membrane was washed, incubated with appropriate alkaline phosphatase conjugated secondary antibody, 1:2000 dilution at room temperature for 2 h. The PVDF-membrane was washed with Blotto and developed with NBT/BCIP (Cappel).\nDose-response curves of the present oligopeptides were performed and their activity was compared to the wild type TPO-Rp.\nPeptide dose response activity was evaluated primarily by in vitro signalling assays. Phosphorylation and thus activation of STAT5, a substrate of JAK2 kinase that is activated by TPO-Rp signal transduction, was measured. Each oligopeptide activity was addressed through a broad range of concentrations. Peptides were tested at concentrations of 0.3, 3, 10, 30 nM and 0.1, 0.3, 3 and 30 μM TPO-Rp. Oligopeptide activity as a measurement of STAT5 phosphorylation in each experiment was compared to activity obtained with 10 ng/ml of TPO, a hormone concentration that gives a maximal activation and signalling through TPO-R. All the peptides were evaluated four to five times in independent experiments. All the data was collected, Western blots were scanned and the intensity of the STAT5 phosphorylation was quantified.\nThe activity of each oligopeptide was addressed as percent of its maximum activity; thus 100% activity was assigned to the value of STAT5 protein phosphorylation obtained with 30 μM oligopeptide concentration."}, "[4]": {"molecular_target": "thrombopoietin receptor (TPO-R) on TF-1 cells (UniProt P40238)", "experiment": "cell-based or functional assay"}, "TPO-R [5]": {"molecular_target": "T1, TPO-R", "experiment": "In vitro signalling assay (STAT5 phosphorylation in TF-1 cells) of stored peptide samples", "format": "cell-based", "details": "day 30, solution in water stored at −20° C.", "method": "as §2\nThe following steps were performed on ice. The medium was aspirated and 0.6 ml of 2× lysis buffer per tube was added. […]\nThe activity of the oligopeptides of the present invention and wild type TPO-Rp was examined by in vitro signalling assays. […] Phosphorylation and thus activation of STATS, a substrate of JAK2 kinase that is activated by TPO-R signal transduction, was measured. […] All the peptides were evaluated three to four times in independent experiments. All the data were collected, Western blots were scanned, and intensity of the STAT5 phosphorylation was quantified."}}, "note": "Where two headings read alike, the source gives them in different places. Where a SMILES comes first, the peptide text is derived from it.", "data": [{"molecule": "TPO: thrombopoietin, natural hormone, glycoprotein ligand of c-mpl (TPO-R)", "values": [{"measurement": "platelet number", "setting": "carboplatin treated mice [1]; 2.4 μg/kg/day i.p. daily, carboplatin 180 mg/kg", "result": "unable to prevent a decrease in platelets"}, {"measurement": "platelet number", "setting": "carboplatin treated mice [2]; 2.4 μg/kg/day days 0 through 13", "result": "again unable to protect decrease in platelets"}, {"measurement": "platelet number", "setting": "carboplatin treated mice [2]; 10 μg/kg/day days 0 through 13", "result": "some effect that does have statistical significance"}, {"measurement": "effect on thrombocytopenia", "setting": "carboplatin treated mice [2]; 10 μg/kg/day from day 8 through 14, carboplatin from day 0", "result": "did not show a significant effect on thrombocytopenia"}]}, {"molecule": "SEQ ID No. 5: oligopeptide G4-R21 of wild type TPO-Rp (GTLELRPRSRYRLQLRAR; listed as Homo sapiens)", "values": [{"measurement": "activity compared to wild type TPO-Rp (STAT5 phosphorylation)", "setting": "TPO-R [3]", "result": "activity identical to wild type TPO-Rp"}]}, {"molecule": "SEQ ID No. 1: oligopeptide A1-L18 of wild type TPO-Rp, 18 amino acids, without R9A, R11A substitutions (ARGGTLELRPRSRYRLQL; listed as Homo sapiens)", "values": [{"measurement": "activity compared to wild type TPO-Rp (STAT5 phosphorylation)", "setting": "TPO-R [3]", "result": "activity comparable to the wild type TPO-Rp"}]}, {"molecule": "CC(C)C[C@H](NC(=O)[C@H](CCC(N)=O)NC(=O)[C@H](CC(C)C)NC(=O)[C@H](CCCNC(=N)N)NC(=O)[C@H](Cc1ccc(O)cc1)NC(=O)[C@H](CCCNC(=N)N)NC(=O)[C@H](CO)NC(=O)[C@H](C)NC(=O)[C@@H]1CCCN1C(=O)[C@H](C)NC(=O)[C@H](CC(C)C)NC(=O)[C@H](CCC(=O)O)NC(=O)[C@H](CC(C)C)NC(=O)[C@@H](NC(=O)CN)[C@@H](C)O)C(=O)O", "note": "[SEQ ID No. 4] (H-GTLELAPASRYRLQL-OH; N-terminus and C-terminus assumed)", "values": [{"measurement": "effect on platelet levels / thrombocytopenia", "setting": "carboplatin treated mice [1]; dose not given, carboplatin 180 mg/kg", "result": "some effect on platelet levels"}, {"measurement": "effects on other blood components", "setting": "carboplatin treated mice [1]", "result": "None of the peptides used"}, {"measurement": "activity compared to wild type TPO-Rp (STAT5 phosphorylation)", "setting": "TPO-R [3]", "result": "retained activity comparable to wild type TPO-Rp"}]}, {"molecule": "SEQ ID No. 3: shortest oligopeptide, 15 amino acids long, G4-L18 of wild type TPO-Rp (GTLELRPRSRYRLQL; listed as Homo sapiens)", "values": [{"measurement": "activity compared to wild type TPO-Rp (STAT5 phosphorylation)", "setting": "TPO-R [3]", "result": "retained activity comparable to wild type TPO-Rp"}]}, {"molecule": "thrombopoietin (TPO) (from UniProt P40225 22-353) (ligand)", "values": [{"measurement": "STAT5 phosphorylation in TF-1 cells; TPO concentration giving maximal activation", "setting": "[4]", "result": 10, "unit": "ng/mL"}]}, {"molecule": "SEQ ID No. 6: oligopeptide G4-R21 of wild type TPO-Rp, R9A, R11A form (GTLELAPASRYRLQLRAR; listed as Homo sapiens)", "values": [{"measurement": "activity compared to wild type TPO-Rp (STAT5 phosphorylation)", "setting": "TPO-R [3]", "result": "activity identical to wild type TPO-Rp"}]}, {"molecule": "CC(C)C[C@H](NC(=O)[C@H](CCCNC(=N)N)NC(=O)[C@H](C)NC(=O)[C@H](CCCNC(=N)N)NC(=O)[C@H](CC(C)C)NC(=O)[C@H](CCC(N)=O)NC(=O)[C@H](CC(C)C)NC(=O)[C@H](CCCNC(=N)N)NC(=O)[C@H](Cc1ccc(O)cc1)NC(=O)[C@H](CCCNC(=N)N)NC(=O)[C@H](CO)NC(=O)[C@H](CCCNC(=N)N)NC(=O)[C@@H]1CCCN1C(=O)[C@H](CCCNC(=N)N)NC(=O)[C@H](CC(C)C)NC(=O)[C@H](CCC(=O)O)NC(=O)[C@H](CC(C)C)NC(=O)[C@@H](NC(=O)CNC(=O)CNC(=O)[C@H](CCCNC(=N)N)NC(=O)[C@H](C)N)[C@@H](C)O)C(=O)N[C@@H](CC(N)=O)C(=O)O", "note": "[TPO-Rp wild type, ARGGTLELRPRSRYRLQLRARLN] (H-ARGGTLELRPRSRYRLQLRARLN-OH; N-terminus and C-terminus assumed)", "values": [{"measurement": "platelet (thrombocyte) number, percent change from basal", "setting": "carboplatin treated mice [1]; 30 μg/kg/day i.p. daily from day 0, carboplatin 180 mg/kg", "result": "significantly increased the thrombocyte number"}, {"measurement": "platelet (thrombocyte) number, percent change from basal", "setting": "carboplatin treated mice [1]; 300 μg/kg/day i.p. daily from day 0, carboplatin 180 mg/kg", "result": "significantly increased the thrombocyte number"}, {"measurement": "survival rate of treated animals", "setting": "carboplatin treated mice [1]; CHI-square analysis, carboplatin 180 mg/kg", "result": "statistically significant survival rate"}, {"measurement": "effects on other blood components", "setting": "carboplatin treated mice [1]", "result": "None of the peptides used"}, {"measurement": "activity (STAT5 phosphorylation) after storage", "setting": "TPO-R [5]", "result": "significant decrease in activity"}]}]}
